Measurements published in US20240327426A1, “CRYSTALLINE FORMS OF CEFTIBUTEN” (QPEX BIOPHARMA, INC., priority 2021, published 2024).

What was measured:
Format in all cases: physicochemical
[1] = Form stability upon storage/shipping at ambient temperature and humidity
Procedure: (§1) In a reaction vessel are charged 400 mL of demineralized water, 37.0 g crude Ceftibuten and 190 mL acetone at 20-25° C. To this mixture is added with stirring a solution of 22.1 g NaHCO3 and 252.2 mL of demineralized water, keeping the pH at 6.5-6.9. The pH is then adjusted to 6.5-6.7 using 15% aqueous H2SO4. To the resulting solution are charged 13.8 g aluminum oxide, 5 g Norit charcoal, 1.5 g Na2S2O4 and 0.25 g disodium EDTA. The mixture is stirred for 20-25 min maintaining pH at 6.5-6.7 with 15% aqueous H2SO4, and is then filtered and washed with 200 mL of demineralized water. The filtrate is added over 20-30 min to a second vessel containing 630 mL water, 81 g malic acid and 175 g 15% aqueous H2SO4, maintaining the temperature at 20-25° C. After stirring for 50-70 min, the pH is adjusted to 2.9-3.1 over 20-25 min at 20-25° C. with a solution constituted by 30 g of K2CO3 and 70 g of demineralized water. This mixture is stirred for 2-2.5 hours, after which it is filtered and washed 5 times with demineralized water (250 mL each). The wet product is dried at 30° C. in a vacuum oven. Depending on the extent of drying, the resulting product may be Form A, Form B, or a mixture of Forms A and B. Three batches prepared by this procedure are shown in Table 1 below.

[2] = Karl Fischer moisture content of ceftibuten hydrate batches; conditions: batches prepared by procedure of Example 1, dried at 30° C. in a vacuum oven
Procedure: as §1
Karl Fischer analyses were carried out using a Mettler-Toledo C20 Coulometric KF titrator. The instrument was calibrated using a Hydranal water standard containing 1% water. The titrant was a Hydranal methanol solution.

[3] = Differential scanning calorimetry (DSC); conditions: 25° C. to 350° C. at 10° C. per minute, nitrogen purge
Procedure: DSC analysis was carried out using a TA Instruments Q2500 Discovery Series instrument. The instrument temperature calibration was performed using indium. The DSC cell was kept under a nitrogen purge of ˜50 mL per minute during the analysis. The sample was placed in a standard, crimped, aluminum pan and was heated from approximately 25° C. to 350° C. at a rate of 10° C. per minute.

[4] = Physical stability under relative humidity conditions, checked by X-ray powder diffraction
Description: In some embodiments, Form A of the compound of Formula (I) may contain between two to three molar equivalents of water. Samples of Form A of the compound of Formula (I) were exposed to several relative humidity conditions ranging from 15% to 100% relative humidity for a period of 14 days, after which an X-ray powder diffraction was taken. In one embodiment, samples Form A of the compound of Formula (I) were exposed to several relative humidity conditions, including 15% relative humidity, 30% relative humidity, 45% relative humidity, 60% relative humidity, 75% relative humidity, and 100% relative humidity for a period of 14 days, after which an X-ray powder diffraction was taken. […] In some embodiments, Form B of the compound of Formula (I) may contain between two to three molar equivalents of water. […] X-ray diffraction was used to characterize the compound of Formula (I). A Rigaku Smart-Lab X-ray diffraction system was configured for reflection Bragg-Brentano geometry using a line source X-ray beam. The x-ray source was a Cu Long Fine Focus tube that may be operated at 40 kV and 44 mA. That source provides an incident beam profile at the sample that changes from a narrow line at high angles to a broad rectangle at low angles. […] Each sample was analyzed from 2 to 40° 2θ using a continuous scan of 6° 2θ per minute with an effective step size of 0.02° 2θ.

[5] = Moisture sorption-desorption (dynamic vapor sorption) analysis; conditions: for Crystalline form after moisture sorption-desorption analysis: 25° C., 5 to 95% RH adsorption and 95 to 5% RH desorption, 10% RH steps
Procedure: In one embodiment, moisture sorption-desorption analyses were taken after running the moisture sorption-desorption experiments. […] DVS analysis was carried out TA Instruments Q5000 Dynamic Vapor Sorption analyzer. The instrument was calibrated with standard weights and a sodium bromide standard for humidity. Samples were analyzed at 25° C. with a maximum equilibration time of 60 minutes in 10% relative humidity (RH) steps from 5 to 95% RH (adsorption cycle) and from 95 to 5% RH (desorption cycle).

| Crystalline form change / stability upon storage/shipping [1] | Dehydration temperature during heating [3] | Hygroscopicity [5] | Crystalline form after moisture sorption-desorption analysis [5] | SMILES | other results |
| --- | --- | --- | --- | --- | --- |
| converted from a mixture to all Form B |  |  |  | Nc1nc(/C(=C/CC(=O)O)C(=O)N[C@@H]2C(=O)N3C(C(=O)O)=CCS[C@H]23)cs1 [Batch 1, ceftibuten] | Moisture Content [2]: 9.44% |
|  |  |  |  | Nc1nc(/C(=C/CC(=O)O)C(=O)N[C@@H]2C(=O)N3C(C(=O)O)=CCS[C@H]23)cs1 [Batch 2, ceftibuten] | Moisture Content ([2]; listed as 2): 8.60% |
|  |  |  |  | Nc1nc(/C(=C/CC(=O)O)C(=O)N[C@@H]2C(=O)N3C(C(=O)O)=CCS[C@H]23)cs1 [Batch 3, ceftibuten] | Moisture Content ([2]; listed as 3): 11.68% |
|  | approximately 100 °C | moderately hygroscopic | convert to Form B | Nc1nc(/C(=C/CC(=O)O)C(=O)N[C@@H]2C(=O)N3C(C(=O)O)=CCS[C@H]23)cs1 [Form A, ceftibuten] | Form conversion under extremely dry conditions ([4]; 0% relative humidity): may convert to Form B; X-ray powder diffraction form after relative humidity exposure ([4]; 15%, 30%, 45%, 60%, 75% and 100% relative humidity, 14 days): match for Form A |
| increased stability | approximately 100 °C | moderately hygroscopic | remain stable and unchanged | Nc1nc(/C(=C/CC(=O)O)C(=O)N[C@@H]2C(=O)N3C(C(=O)O)=CCS[C@H]23)cs1 [Form B, ceftibuten] |  |
